Several values for one entry are separate records, joined by “and”; a condition that tells them apart may be missing. Equal values may be shown once.
Experiments:
[1] = instrument: TW, calibrated with polyalanine
[2] = instrument: TW, calibrated with polyalanine; remark: listed apart in the source
[3] = [M+H]+; instrument: DT; stepped-field
[4] = instrument: TW, calibrated with phosphatidylcholines (ESI+) and phosphatidylethanolamines (ESI-)
[5] = instrument: DT, stepped-field
[6] = instrument: DT, single field, calibrated with Agilent tune mix (Agilent)
[7] = instrument: DT, single field
[8] = instrument: DT, stepped-field; remark: listed apart in the source
[9] = [M-H]-; instrument: TW; calibrated with phosphatidylcholines (ESI+) and phosphatidylethanolamines (ESI-)

O=C(O)C(CO)OP(=O)(O)O (stereo not given) [2-Phosphoglyceric acid]
collision cross section (N2) ([1]; [M+Na]+): 132 Å²

CC(=O)O[C@@H]1C[C@]2(C)[C@@]3(CO)[C@H](O)C(=O)C(C)=C[C@H]3O[C@H]1[C@@]21CO1 [3-Acetyldeoxynivalenol]
collision cross section (N2) ([2]; [M+H3C2O2]-): 196 Å²

O=C1CC[C@@H](C(=O)O)N1 [5-Oxoproline]
collision cross section (N2) ([1]; [M+H]+): 121 Å²

CC(=O)OC[C@]12[C@H](O)C(=O)C(C)=C[C@H]1O[C@@H]1[C@H](O)C[C@@]2(C)[C@]12CO2 [15-Acetyldeoxynivalenol]
collision cross section (N2) ([2]; [M+H3C2O2]-): 196 Å²

CN(C)C(N)=NCCC[C@H](N)C(=O)O [ADMA]
collision cross section (N2) ([1]; [M+H]+): 141 Å²

CC(=O)N[C@@H]1[C@@H](O)[C@H](O)[C@@H](CO)O[C@H]1O [Acetylglucosamine]
collision cross section (N2) ([1]; [M+Na]+): 153 Å²

COc1cc2c(c3oc(=O)c4c(c13)CCC4=O)[C@@H]1C=CO[C@@H]1O2 [Aflatoxin B1]
collision cross section (N2) ([2]; [M+H]+): 161 Å²
collision cross section (N2) ([2]; [M+K]+): 177.1 Å²
collision cross section (N2) ([2]; [M+Na]+): 164 Å²

COc1cc2c(c3oc(=O)c4c(c13)CCOC4=O)C1C=COC1O2 (stereo not given) [Aflatoxin G1]
collision cross section (N2) ([2]; [M+H]+): 164 Å²
collision cross section (N2) ([2]; [M+K]+): 180.2 Å²
collision cross section (N2) ([2]; [M+Na]+): 176.5 Å²

COc1cc2c(c3oc(=O)c4c(c13)CCC4=O)[C@]1(O)C=CO[C@@H]1O2 [Aflatoxin M1]
collision cross section (N2) ([2]; [M+H]+): 166 Å²
collision cross section (N2) ([2]; [M+K]+): 177.8 Å²
collision cross section (N2) ([2]; [M+Na]+): 179.5 Å²

NC(N)=NCCC[C@H](N)C(=O)O [Arginine]
collision cross section (N2) ([1]; [M+H]+): 133 Å²

O=C(O)CC(O)(CC(=O)O)C(=O)O [Citric acid]
collision cross section (N2) ([1]; [M+Na]+): 138 Å²

CC1=C2C(=CO[C@H](C)[C@H]2C)C(=O)C(C(=O)O)=C1O [Citrinin]
collision cross section (N2) ([2]; [M+H]+): 148 Å²

NC(=O)NCCC[C@H](N)C(=O)O [Citrulline]
collision cross section (N2) ([1]; [M+H]+): 132 Å²

CC(=O)C1=C(O)[C@@H]2[C@H]3c4c[nH]c5cccc(c45)C[C@H]3C(C)(C)N2C1=O [Cyclopiazonic acid]
collision cross section (N2) ([2]; [M-H]-): 174 Å²

CC1=C[C@H]2O[C@@H]3[C@H](O)C[C@](C)([C@@]2(CO)[C@H](O)C1=O)[C@]31CO1 [Deoxynivalenol]
collision cross section (N2) ([2]; [M+H3C2O2]-): 183 Å²

CC(C)[C@H]1C(=O)O[C@H](C(C)C)C(=O)N(C)[C@@H](C(C)C)C(=O)O[C@H](C(C)C)C(=O)N(C)[C@@H](C(C)C)C(=O)O[C@H](C(C)C)C(=O)N1C [Enniatin B]
collision cross section (N2) ([2]; [M+H]+): 244.1 Å²
collision cross section (N2) ([2]; [M+K]+): 251.1 Å²
collision cross section (N2) ([2]; [M+NH4]+): 248 Å²
collision cross section (N2) ([2]; [M+Na]+): 248.9 Å²

CCCC[C@@H](C)[C@@H](OC(=O)C[C@@H](CC(=O)O)C(=O)O)[C@H](C[C@@H](C)CCCCCC[C@@H](O)C[C@H](O)[C@H](C)N)OC(=O)C[C@@H](CC(=O)O)C(=O)O [Fumonisin B2]
collision cross section (N2) ([2]; [M+H]+): 258 Å²
collision cross section (N2) ([2]; [M+K]+): 264.5 Å²
collision cross section (N2) ([2]; [M+Na]+): 259.2 Å²

CCCC[C@@H](C)[C@@H](O)[C@@H](O)C[C@@H](C)C[C@H](O)CCCC[C@@H](O)C[C@H](O)[C@H](C)N [HFB1]
collision cross section (N2) ([2]; [M+K]+): 214 Å²
collision cross section (N2) ([2]; [M+Na]+): 209.7 Å²

CC(=O)OC[C@]12C[C@H](OC(=O)CC(C)C)C(C)=C[C@H]1O[C@@H]1[C@H](O)[C@@H](O)[C@@]2(C)[C@]12CO2 [HT-2 toxin]
collision cross section (N2) ([2]; [M+NH4]+): 203 Å²

CCCCCCCC/C=C\CCCCCCCC(=O)OC[C@@H](O)COP(=O)([O-])OCC[N+](C)(C)C [LPC(18:1)]
collision cross section (N2) [3]: 235.59 Å² and 236.1 Å²
collision cross section (N2) ([4]; [M+H]+): 230.8 Å²
collision cross section (N2) ([5]; [M+H]+): 236.2 Å²
collision cross section (N2) ([6]; [M+HCOO]-): 238.6 Å²
collision cross section (N2) ([6]; [M+Na]+): 236.1 Å²

CC1=C[C@H]2O[C@@H]3[C@H](O)[C@@H](O)[C@](C)([C@@]2(CO)[C@H](O)C1=O)[C@]31CO1 [Nivalenol]
collision cross section (N2) ([2]; [M+H3C2O2]-): 180 Å²

CCCCCC/C=C\CCCCCCCCCC(=O)OC[C@H](COP(=O)([O-])OCC[N+](C)(C)C)OC(=O)CCCCCCC/C=C\CCCCCC [PC(34:2)]
collision cross section (N2) ([7]; [M+H]+): 282.64 Å² and 284.2 Å²
collision cross section (N2) ([4]; [M+CH3COO]-): 287.7 Å²
collision cross section (N2) ([4]; [M+H]+): 281.7 Å²
collision cross section (N2) ([8]; [M+K]+): 291.3 Å²
collision cross section (N2) ([5]; [M+H]+): 302.6 Å²
collision cross section (N2) ([6]; [M+HCOO]-): 285.5 Å²
collision cross section (N2) ([6]; [M+H]+): 285.2 Å²
collision cross section (N2) ([6]; [M+Na]+): 289.4 Å²

CCCCCCCC/C=C\CCCCCCCCCCCC(=O)OC[C@H](COP(=O)([O-])OCC[N+](C)(C)C)OC(=O)CCCCCCCCCCCCC [PC(36:1)]
collision cross section (N2) ([7]; [M+H]+): 292.57 Å²
collision cross section (N2) ([7]; [M+Na]+): 294 Å²
collision cross section (N2) ([4]; [M+CH3COO]-): 294.5 Å²
collision cross section (N2) ([4]; [M+H]+): 291.6 Å²
collision cross section (N2) ([5]; [M+H]+): 306.2 Å²
collision cross section (N2) ([6]; [M+HCOO]-): 292.3 Å²
collision cross section (N2) ([6]; [M+H]+): 293.9 Å²
collision cross section (N2) ([6]; [M+Na]+): 297.1 Å²

CCCCC/C=C\C/C=C\CCCCCCCCCCCC(=O)O[C@H](COC(=O)CCCCCCC/C=C\CCCCCC)COP(=O)(O)OCCN [PE(38:3)]
collision cross section (N2) ([4]; [M-H]-): 271.7 Å²
collision cross section (N2) ([8]; [M+Na]+): 289.3 Å²
collision cross section (N2) ([5]; [M+H]+): 297.1 Å²
collision cross section (N2) ([6]; [M-H]-): 273.3 Å²

CCCCC/C=C\C/C=C\C/C=C\C/C=C\CCCCCC(=O)O[C@H](COC(=O)CCCCCCC/C=C\C/C=C\CCCCC)COP(=O)(O)OCCN [PE(40:6)]
collision cross section (N2) ([4]; [M+H]+): 282.9 Å²
collision cross section (N2) ([4]; [M-H]-): 275.4 Å²
collision cross section (N2) ([8]; [M+K]+): 294.7 Å²
collision cross section (N2) ([5]; [M-H]-): 289.4 Å²
collision cross section (N2) ([6]; [M+H]+): 284.5 Å²
collision cross section (N2) ([6]; [M+Na]+): 290.3 Å²
collision cross section (N2) ([6]; [M-H]-): 276.2 Å²

CCCCC/C=C\C/C=C\CCCCCCCCCC(=O)O[C@H](COC(=O)CCCCCCCCCCCCCC)COP(=O)(O)OC[C@@H](O)CO [PG(35:2)]
collision cross section (N2) [9]: 271.4 Å²
collision cross section (N2) ([5]; [M-H]-): 278.7 Å²

CC(C)(O)[C@H]1O[C@H]2CC[C@@]3(C)[C@@](O)(CC[C@H]4Cc5c([nH]c6ccccc56)[C@@]43C)C2=CC1=O [Paxilline]
collision cross section (N2) ([2]; [M+H]+): 201 Å²

C=CC(C)(C)C12CC3C(=O)N/C(=C/c4cnc[nH]4)C(=O)N3C1Nc1ccccc12 (stereo not given) [Roquefortine C]
collision cross section (N2) ([2]; [M+H]+): 179 Å²

COc1cc2c(c3oc4cccc(O)c4c(=O)c13)[C@@H]1C=CO[C@@H]1O2 [Sterigmatocystin]
collision cross section (N2) ([2]; [M+H]+): 163 Å²

C[C@H]1CCC[C@@H](O)CCC/C=C/c2cc(O)cc(O)c2C(=O)O1 [beta-zearalenol]
collision cross section (N2) ([2]; [M-H]-): 173 Å²

Source: the C3SDB collision cross section collection
